Format in all cases: cell-based
Assay [1] addresses mouse μOR receptor (Flag-μOR-2x) (Mus musculus, UniProt P42866, M72T). The assay can be described thus: G protein activation assay. The following applies: Gi1-2-3 and Goa-b activation, HEK293 cells.
The next assay concerns μ-opioid receptor (μOR).
In assay [2] the target is T1, human μOR receptor fused to YFP (Homo sapiens, UniProt P35372).
Assay [3] concerns the target T1, human μOR receptor fused to YFP. The source holds these as a separate data set.
Another assay concerns the target SNAP-μOR receptor (Homo sapiens, UniProt P35372).

T1 sequence (P35372 whole entry, the tested form may be a part): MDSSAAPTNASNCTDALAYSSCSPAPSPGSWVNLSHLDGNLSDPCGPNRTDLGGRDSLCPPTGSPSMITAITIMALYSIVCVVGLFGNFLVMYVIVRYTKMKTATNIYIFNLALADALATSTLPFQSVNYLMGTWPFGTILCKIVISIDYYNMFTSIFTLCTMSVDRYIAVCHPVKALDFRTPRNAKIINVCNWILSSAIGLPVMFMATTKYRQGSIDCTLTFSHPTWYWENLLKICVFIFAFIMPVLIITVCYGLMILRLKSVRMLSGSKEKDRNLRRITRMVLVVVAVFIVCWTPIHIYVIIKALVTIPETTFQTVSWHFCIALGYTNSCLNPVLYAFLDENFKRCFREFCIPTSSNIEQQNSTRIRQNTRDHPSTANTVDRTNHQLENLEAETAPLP
mouse μOR receptor (Flag-μOR-2x), sequence (P42866 whole entry M72T): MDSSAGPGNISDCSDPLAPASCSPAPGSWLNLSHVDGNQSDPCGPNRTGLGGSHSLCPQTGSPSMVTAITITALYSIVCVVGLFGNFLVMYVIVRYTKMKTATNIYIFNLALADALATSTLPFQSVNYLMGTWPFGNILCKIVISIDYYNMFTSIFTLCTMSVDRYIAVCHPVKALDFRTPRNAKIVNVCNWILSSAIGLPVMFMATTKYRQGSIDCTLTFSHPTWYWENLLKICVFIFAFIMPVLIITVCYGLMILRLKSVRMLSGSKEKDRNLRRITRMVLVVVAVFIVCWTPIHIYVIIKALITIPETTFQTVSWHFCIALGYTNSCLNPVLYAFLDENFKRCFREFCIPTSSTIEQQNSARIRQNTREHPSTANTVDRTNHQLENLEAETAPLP
SNAP-μOR receptor, sequence (P35372 whole entry): as the sequence (P35372 whole entry, the tested form may be a part) above

Regarding `C[C@@H](Cc1ccsc1)NC(=O)NC[C@H](Cc1ccc(O)cc1)N(C)C` [PZM21], the “Agonist behaviour in G protein assays” value in assay [1] is on record as “full agonists”. Moreover, the “Classification of agonism and bias” value with μ-opioid receptor (μOR) was “G protein-biased full agonists”.
Turning to `COc1ccsc1CNCC[C@@]1(c2ccccn2)CCOC2(CCCC2)C1` [oliceridine], the “Agonist behaviour in G protein assays” value in assay [1] is listed as “full agonists”. Further, the “Recruitment of GRK2/5 (response)” value in assay [2] is “nearly no response”. For the same compound, the “Recruitment of β-arrestin-1/2 (response)” value in assay [3] is recorded as “nearly no response”. At SNAP-μOR receptor, the “μOR internalization (response)” value was “nearly no response”. In addition, in the assay on μ-opioid receptor (μOR), the “Classification of agonism and bias” value is given as “G protein-biased full agonists”.
With “[D-Ala^2, N-Me-Phe^4, Gly^5-ol]-Enkephalin acetate salt [DAMGO]”, the “Classification of agonism and bias” value in the assay with μ-opioid receptor (μOR) was “unbiased full agonists”.

Source of the values: article PMC8541911 (Molecular cell, 2021).
